For 18 compounds, IC50 results are on record in patent US8158641B2, “2-anilino-4-aminoalkyleneaminopyrimidines” (Boehringer Ingelheim International GmbH, priority 2006, dated 2012).

As a reminder, the IC50 is the concentration at which inhibition is half-maximal.

This assay has as its target T1, full-length human PKC-α enzyme (Homo sapiens, UniProt P17252).
T1 construct: performed using full-length human PKC-α enzyme (Upstate Biotechnology); purchased Upstate Biotechnology
Kind of assay: Assessment of PKC-α Inhibitory Activity (MALDI-TOF kinase assay). It is filed as biochemical. Conditions: full-length human PKC-α 0.12 μg/ml; ATP 45 μM; neurogranin 28-43 peptide 22 μM; 30 minute incubation at 24° C.; MALDI-TOF readout. Here is the method:
Measurement of PKC-α enzyme activity is performed using full-length human PKC-α enzyme (Upstate Biotechnology) at a final concentration of 0.12 μg/ml in a kinase assay buffer (0.09 mg/ml bovine serum albumin (BSA), 210 μM ethylenediaminetetraacetic acid (EDTA), 360 μM CaCl2, 1 mM Tris-HCl, pH=7.5, 0.5 mM MgCl2, 0.015 mg/ml phosphatidylserine and 0.015 mg/ml diacylglycerol). The reaction is initiated by addition of adenosine triphosphate (ATP; final concentration 45 μM) and a peptide substrate consisting of amino acids 28-43 (Ala-Ala-Lys-Ile-Gln-Ala-Ser-Phe-Arg-Gly-His-Met-Ala-Arg-Lys-Lys) of neurogranin (Promega; final concentration 22 μM). After a 30 minute incubation at 24° C. the reaction is terminated by adding 5 μL of the reaction mixture into 50 μL of MALDI matrix solution (5 mg/ml α-cyano-4-hydroxycinnamic acid in 50% Acetonitrile/H2O, 0.1% TFA, 5 mM ammonium phosphate). Two microliters of the stopped reaction mixture is transferred onto a MALDI-TOF mass spectrometer target plate.
All spectra are collected on an Applied Biosystems 4700 Proteomics Analyzer MALDI-TOF MS equipped with a Nd:YAG laser (355 nm, 3 ns pulse width, 200 Hz repetition rate) in negative ion reflector mode. The system is operated with 4700 Explorer software, version 3.0. Automated acquisition parameters are adjusted to capture and average only those individual spectra within defined success criteria. Specifically, signal intensities for the substrate peptide are set to a minimum threshold of 3000 counts and a maximum intensity of 65,000 counts. This ensured that neither null spectra nor saturated spectra are averaged into the final readout. Between 1000 and 1500 laser shots are averaged for each sample. Data are collected in triplicate from 3 successive days to capture the maximum variability related to preparation of enzyme reaction, transfer of samples to MALDI target plates, data collection, and data extraction.
The isotope cluster areas for each peptide substrate and product peaks are extracted into a Microsoft Excel worksheet from the 10×10 array of spectral data simultaneously using the automated analysis function provided within the 4700 Explore software. The isotope cluster area is defined by the software algorithm based on the molecular weight and the general elemental composition of the peptides. The percent conversion (% C) of substrate to product is calculated as the cluster area of the product (P) divided by the sum of the cluster areas of the substrate (S) and the product multiplied by 100 as represented by the following equation: […]
For dose-dependent inhibition studies, the inhibition is plotted as a % Maximal Activity (% MA). Equation one is a measure of the ratio of product to substrate then solving for the % C. However, to measure inhibition of the enzyme activity, one must measure the degree to which that activity (% C) is curtailed. Thus the dose-dependant inhibition data is plotted as % MA where the maximal activity is the % C measured in control reactions with no inhibitor as represented by the following equation: […]
Take `CN(C)CCCCNc1ccnc(Nc2cccc(Cl)c2)n1` [compound 81]: inhibition was half-maximal at 12 nM (IC50). Then `Cc1cccc(Nc2nccc(NCCCN(C)C)n2)c1` [compound 58], with 93 nM; and `Cc1nc(-c2cccc(Nc3nccc(NCCCN(C)C)n3)c2)cs1` [compound 105], with 48 nM; and `CN(C)CCCNc1ccnc(Nc2ccc(Cl)c(C(F)(F)F)c2)n1` [compound 45], with 3 nM. Turning to `CN(C)CCCNc1ccnc(Nc2cccc(Cl)c2F)n1` [compound 25], the IC50 amounted to 23 nM.

`CN(C)CCCCNc1ccnc(Nc2cccc(Cl)c2)n1` [No. 81, N^2-(3-chlorophenyl)-N^4-[4-(dimethylamino)butyl]pyrimidine-2,4-diamine]: it took 0.8 nM to reach half-maximal inhibition (IC50). `COc1cccc(Nc2nccc(NCCCN(C)C)n2)c1` [compound 51] had a half-maximal inhibitory concentration (IC50) of 14 nM.

`CN(C)CC(C)(C)CNc1ccnc(Nc2cccc(C(F)(F)F)c2)n1` [No. 75, N^4-[3-(dimethylamino)-2,2-dimethylpropyl]-N^2-[3-(trifluoromethyl)phenyl]pyrimidine-2,4-diamine] gave an IC50 of 4 nM.

Take `CN(C)CCCNc1ccnc(Nc2ccc(F)c(Cl)c2)n1` [compound 27]: the midpoint of inhibition, the IC50, lay at 8 nM. `CN(C)CCCNc1ccnc(Nc2ccc(Cl)c(Cl)c2)n1` [compound 15]: it took 15 nM to reach half-maximal inhibition (IC50). Then `CCN(CC)CCCNc1ccnc(Nc2cccc(Cl)c2)n1` [compound 6], with 1 nM; and `CN(C)CCCNc1ccnc(Nc2cccc(C(F)(F)F)c2)n1` [compound 39], with 0.5 nM. In turn, `CN(C)CCNc1ccnc(Nc2cccc(Cl)c2)n1` [compound 69] gave an IC50 of 83 nM. Compound `CN(C)CCCNc1ccnc(Nc2cccc(-c3ccccc3)c2)n1` [compound 87] registered an IC50 of 0.4 nM.

As for `Cc1ccc(Nc2nccc(NCCCN(C)C)n2)cc1Cl` [compound 21], the IC50 was 3 nM.

Consider `CN(C)CCCNc1ccnc(Nc2ccc(F)c(F)c2)n1` [compound 33], for which 65 nM corresponded to half-maximal inhibition (IC50). Then `Cc1cccc(Nc2nccc(NCCCN(C)C)n2)c1` [compound 55], with 40 nM; and `CN(C)CCCNc1ccnc(Nc2cccc(Cl)c2)n1` [No. 3, N^2-(3-chlorophenyl)-N^4-[3-(dimethylamino)propyl]pyrimidine-2,4-diamine], with 312 nM.
